Experimental data reported in publication PMC11290694 (Science (New York, N.Y.), 2024).
Where two headings read alike, the source gives them in different places.

Assays:
[1] = molecular target: PiB; assay: UV-visible absorption titration, single-site global fit; format: binding, synthetic construct
[2] = molecular target: PiB′; assay: as above; format: binding, synthetic construct

| Kd [1] | Kd ([2]; PDB 8TNB is labelled mefuparib-bound PiB in b31 but PiB′ in b20 and b22) | Kd [2] | Compound |
| --- | --- | --- | --- |
| 190 nM | 350 nM |  | CNCc1ccc(-c2cc3cc(F)cc(C(N)=O)c3o2)cc1 [mefuparib] |
| 600 nM |  | 550 nM | NC(=O)c1cccc2cn(-c3ccc([C@@H]4CCCNC4)cc3)nc12 [niraparib] |
